In patent US20110172308A1, “Antagonsim of PGF2a Receptor to Treat Hyertension Characterized by Activation of the Renin-Angiotensin-Aldosterone System” (The Trustees of The University of Pennsylvania, priority 2008, published 2011):
Entries after “also recorded” stand apart in the source; their conditions may differ.

Assays:
[1] = tested on: juxtaglomerular (JG) cells; experiment: Renin mRNA expression in cultured JG cells treated with prostanoid agonists (real time RT-PCR); assay type: cell-based, mouse
Description: Culture of Juxtaglomerular (JG) cells: JG cells were prepared as described (Fujino et al., 2004, J Clin Invest. 114: 805-812). The kidneys were removed, decapsulated, minced with a surgical blade, incubated with 0.1% collagenase for 15 minutes at 37° C. and filtered through a 40 μm nylon mesh. The filtered cells were placed on 15 ml of 30% isosmotic Percoll solution (Amersham Biosciences) and centrifuged at 27,000 g for 20 minutes at 4° C. The cell layer near the surface, enriched with JG cells, was collected and washed. […] The resulting cDNA (40 ng) was used for quantitative real time PCR. Quantitative real time PCR Analysis of Gene Expression: TaqMan gene expression assays (Applied Biosystems, Foster City, Calif.; catalog No. 4331182) for FP (Mm004360055_m1), RENIN (Mm02342889_g1), TNFα (Mm00443258_m1), IL-1β (Mm00434228_m1), IL-12β (Mm01351787_m1), IL-4 (Mm00445259_m1,) IL-6 (Mm00446190_m1), IL-18 (Mm00434225_m1), iNOS (Mm01309902_m1), TGFβ (Mm00441724_m1), INFγ (Mm00801778_m1), IL-10 (Mm00439616_m1) were performed on an ABI Prism 7900 Sequence Detection System. […] An prostanoid agonist was administered as different concentrations and the expression of renin was monitored using real time RT-PCR. […]

JG cells = experiment: cAMP content in cultured cells rich in JG cells; assay type: cell-based, mouse; details: vs vehicle controls
Text: (§1) FIGS. 5A-5E depict data related to renin expression resulting from activation of FP or prostacyclin (IP) receptor in in vitro cultures of juxtaglomerular apparatus cells obtained from WT or FP knockout mice. FIG. 5A is a graph depicting the effect of FP agonists Latanoprost (Lata) and Travoprost (Trav), and IP agonist Cicaprost (Cica) on renin mRNA expression in JG enriched cultured cells. Each point represents mean±SEMs of 4 cell groups, repeated 3 times. FIG. 5B is a bar graph illustrating the effect of effect of Latanoprost and Cicaprost on cAMP content in cultured cells rich in JG cells. Data are presented as cAMP fold change from 3-6 independent samples (6-well plate) from 3 independent experiments. *, p<0.05 vs vehicle controls, n=3. FIG. 5C is a graph of the original recording of membrance capacitance in a single mouse JG cell from WT mice. […] FIG. 5E is a graph of whole cell currents were measured in response to 11 pulses from −150 to +90 mV in 30-mV steps for 200 ms from a holding potential of −30 mV. Pulses were applied before and after superfusion with 1 μM Latanoprost. Mean steady-state current-voltage curves from 4 independent experiments before (cycle) and after (square) 20 min of capacitance measurements are given.
Culture of Juxtaglomerular (JG) cells: JG cells were prepared as described (Fujino et al., 2004, J Clin Invest. 114: 805-812). […]

single WT JG cells = experiment: Patch-clamp membrane capacitance of single JG cells; assay type: cell-based, mouse; details: single WT JG cells in vitro, 1 μM Latanoprost
Text: as §1

renin secretion = details: Jensen et al., 1996; Fujino et al., 2004; cited from earlier work
WT and FP knockout mice = experiment: Mean arterial blood pressure after bolus of Ang II; assay type: in vivo, mouse; details: 50 ng/kg, acute intracarotid infusion, n=7
Description: FIGS. 3A-3C depicts data related to angiotensin II receptor (AT1) expression and blood pressure effects of Ang II injection in WT and FP knockout mice. FIG. 3A depicts AT1a and FIG. 3B depicts AT1b gene expression in aorta by real time RT-PCR. *p<0.01 (n=4) versus WT, repeated 3 times. FIG. 3C depicts blood pressure (BP) after Angiotengin II (Ang II) administration (50 ng/kg) compared with baseline in FP^−/− and WT littermates. Mean arterial BP was monitored in mice by pressure transducer connected to a catheter in left artery. Baseline BP is readout before injection. BP changes are depicted as difference between baseline and after injection at one min intervals. *p<0.01 versus WT, n=8-9.
Mean Arterial Blood Pressure (BP) Measurements: The right internal jugular vein and left carotid artery of anesthetized mice were cannulated with PE-10 tubing. The arterial catheter was connected to a Capto SP844 pressure transducer, and BP was monitored continuously with a PowerLab/8SP system. […]
To examine the acute effect of Ang II on blood pressure, WT and FPKO mice were sedated and subjected to a bolus infusion of Ang II. Blood pressure was measured directly using an arterial catheter connected to a pressure transducer. After the equilibration period and the baseline BP was recorded, mice were injected with a bolus of Ang II.

WT and FPKO mice = experiment: Mean arterial blood pressure after PGF2α administration; assay type: in vivo, mouse
Description: Mean Arterial Blood Pressure (BP) Measurements: The right internal jugular vein and left carotid artery of anesthetized mice were cannulated with PE-10 tubing. The arterial catheter was connected to a Capto SP844 pressure transducer, and BP was monitored continuously with a PowerLab/8SP system. Mice were injected via the right internal jugular vein with […] or PGF2α administration to exclude volume-mediated BP changes.
Given that the lacZ gene was knocked into the endogenous FP receptor locus in the FP targeting allele, the receptor expression pattern was monitored by mapping β-galactosidase (β-gal) activity. Scattered activity of β-gal was detectable in the medial smooth muscle layer of renal small arteries in FP^+/− mice (FIG. 6A), but was not evident in FP^+/− mouse aorta nor in the atherosclerotic lesions of Ldlr^−/−/FP^−/− mice (FIGS. 6B-6G). To assess the systemic effect of PGF2α, WT and FPKO mice were sedated in order to measure blood pressure directly in the heart. PGF2α was administered and blood pressure was monitored. Once blood pressure returned to baseline, the next dose of PGF2α was administered (FIG. 6H). Four doses of PGF2α were tested: 10 μg/kg body weight, 30 μg/kg, 90 μg/kg and […].

**Q.** Which “expression of renin in JG cells from FPKO mice” value ([1]; JG cells from FPKO mice, 20 hours incubation, various concentrations) does the source give for `CCC#CC[C@H](C)[C@H](O)C#C[C@@H]1[C@H]2C/C(=C/COCC(=O)O)C[C@H]2C[C@H]1O` [Cicaprost] here?
**A.** Its value is “stimulated”.

**Q.** What about the “effects as a renin secretagogue, WT compared with FP−/− mice” value ([1]; JG cells from WT vs FP−/− mice) of the same molecule?
**A.** Its value is “similar”.

**Q.** And the “JG cell cAMP” value (JG cells)?
**A.** The value was “increase”.

**Q.** What does the source list for `CC(C)OC(=O)CCC/C=C\C[C@@H]1[C@@H](CC[C@@H](O)CCc2ccccc2)[C@H](O)C[C@@H]1O` [Latanoprost]?
**A.** JG cell cAMP (JG cells): failed to increase; change in membrane capacitance (single WT JG cells): no change

**Q.** With `CCCCC[C@H](O)/C=C/[C@H]1[C@H](O)CC(=O)[C@@H]1C/C=C\CCCC(=O)O` [PGE2] as the molecule, how does the renin secretagogue activity (renin secretion) read?
**A.** Its renin secretagogue activity is “potent renin secretagogues”.

**Q.** With `CCCCC[C@H](O)/C=C/[C@@H]1[C@H]2C/C(=C/CCCC(=O)O)O[C@H]2C[C@H]1O` [Prostacyclin (PGI2), Prostacyclin] as the molecule, how does the renin secretagogue activity (renin secretion) read?
**A.** The renin secretagogue activity was “potent renin secretagogues”.

**Q.** For “angiotensin II (DRVYIHPF; Angiotensin-2; UniProt P01019 25-32, looked up) [Ang II, Ang II peptide, a powerful vasoconstrictor]”, which “hypertensive response to acute infusion of Ang II in FP KO mice” value (WT and FP knockout mice; FP KO mice) is on record?
**A.** The value was 37.5±5.6.

**Q.** And the “hypertensive response to acute infusion of Ang II in WT controls” value (WT and FP knockout mice; WT controls)?
**A.** Its value is 20.3±4.7.

**Q.** For prostaglandin F2α [PGF2α], which “blood pressure after PGF2α administration in FPKO mice” value (WT and FPKO mice; FPKO mice, 10, 30, 90, 270 μg/kg) is on record?
**A.** Its value is “not”.

**Q.** What about the “blood pressure in FP−/− mice at the highest rate of infusion” value (WT and FPKO mice; FP−/− mice, highest rate of infusion) of the same molecule?
**A.** The value was “rise in blood pressure”.

**Q.** And the “blood pressure after PGF2α administration in WT mice” value (WT and FPKO mice; WT mice, 10, 30, 90, 270 μg/kg)?
**A.** Its value is “increased; also recorded: dose dependent”.

**Q.** What about the renin secretagogue activity (renin secretion) of the same molecule?
**A.** The renin secretagogue activity was “not”.
